Target: 60S ribosomal protein L19-A (Saccharomyces cerevisiae (strain ATCC 204508 / S288c), UniProt P0CX82)
Test: RPL19A-GFP expression changes in yeast, dose response, cell-based, cherry pick 3, SAR, flow cytometry GFP, multiplex (AID 488814)
Settings: inactive by the depositor's call

Chain of 60S ribosomal protein L19-A (P0CX82 whole entry): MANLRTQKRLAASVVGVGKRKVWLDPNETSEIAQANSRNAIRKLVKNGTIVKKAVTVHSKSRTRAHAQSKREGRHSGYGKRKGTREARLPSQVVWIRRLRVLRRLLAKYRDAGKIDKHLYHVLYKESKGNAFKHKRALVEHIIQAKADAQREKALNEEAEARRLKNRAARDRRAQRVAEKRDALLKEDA

| EC50 | Compound |
| --- | --- |
| 38.2 µM | Cc1ccc(C(=O)Nc2nc(-c3ccccn3)cs2)o1 [5-methyl-N-[4-(2-pyridinyl)-2-thiazolyl]-2-furancarboxamide] |
| 55.7 µM | CCOC(=O)CS(=O)(=O)c1nc(-c2ccccc2)cc(C(F)(F)F)n1 [2-[4-phenyl-6-(trifluoromethyl)pyrimidin-2-yl]sulfonylacetic acid ethyl ester] |

From BindingDB's records for doi:10.7270/Q2H70D87 (Nmmlsc, 2011)
